Measurements as given in patent US20100279969A1, “AZIDO PURINE NUCLEOSIDES FOR TREATMENT OF VIRAL INFECTIONS” (priority 2007, published 2010).

Key:
[1] = tested on: HIV-1AZT7 (M41L/D67N/K70R/T215F/K219Q); assay: Drug susceptibility assay against drug-resistant HIV, fold resistance; assay type: cell-based; conditions: EC50 for mutant HIV-1 divided by EC50 for WT HIV-1
Procedure: At 48 h post-infection, a cell lysis buffer and luminescent substrate (Gal-Screen; Tropix/Applied Biosystems) was added to each well, and relative light unit values were determined using a luminometer (ThermoLabSystems, Waltham, Mass.).
Drug susceptibility assays were performed using the single- and multiple-replication-cycle assays also described above.

HIV-1 RT containing TAMS = conditions: cited from earlier work
adenosine deaminase = assay type: in vitro ADME; conditions: 7 minutes with 0.002 units of enzyme; 50 μM, pH 7.4, 25° C.
Procedure: To determine the propensity for deamination of the APN nucleosides by adenosine deaminase, compounds were incubated with the commercially available purified enzyme, and the reaction was followed spectrophotometrically. Reaction conditions were 50 mM potassium phosphate, pH 7.4, with 50 μM APN nucleoside in 0.5 mL at 25° C. Reaction time was 7 minutes with 0.002 units of enzyme and 120 minutes with 0.2 units of enzyme. (The unit definition of adenosine deaminase is one unit will deaminate 1.0 μmol of adenosine to inosine per minute at pH 7.5 at 25° C.) Deoxyadenosine was the positive control which was 59% deaminated under the given conditions in 7 minutes with 0.002 units of enzyme. Deoxyguanosine was the negative control. Optical density was measured at 265 nm or 285 nm. The difference in optical density between the beginning and the end of the experiment was divided by the extinction coefficient then multiplied by the volume of the reaction to determine the number of mols of substrate transformed into product. Mols of product were divided by mols of substrate equivalent to a 100% complete reaction then multiplied by 100 to obtain percent deamination. The limit of detection was 0.001 optical density units.

HepG2 cells = HepG2 cells incubated with 10 μM; cited from earlier work

Structure (SMILES): Cc1cn([C@H]2C[C@H](N=[N+]=[N-])[C@@H](CO)O2)c(=O)[nH]c1=O [AZT, 3′-azido-3′-deoxythymidine]
- fold resistance [1]: > 500 fold

Structure (SMILES): Cc1cn([C@H]2C[C@H](N=[N+]=[N-])[C@@H](COP(=O)(O)O)O2)c(=O)[nH]c1=O [AZT-MP]
- lower sensitivity of excision to inhibition by the next-correct dNTP than other NRTI analogs that lack a 3′-azido group (HIV-1 RT containing TAMS): > 50 fold

Structure (SMILES): Nc1ncnc2c1ncn2[C@H]1C[C@H](O)[C@@H](CO)O1 [Deoxyadenosine]
- percent deamination (adenosine deaminase): 59%

Structure (SMILES): O=c1[nH]c(=O)n([C@@H]2O[C@H](CO)[C@@H](O)[C@@H]2F)cc1I [fialuridine, 1,2′-deoxy-2′-fluoro-1-D-arabinofuranosly-5-iodo-uracil]
- mitochondrial morphology in electron micrographs (HepG2 cells): enlarged mitochondria with morphological changes consistent with mitochondrial dysfunction
